From patent publication US10632125B2, “MTH1 inhibitors for treatment of inflammatory and autoimmune conditions” (THOMAS HELLEDAYS STIFTELSE FÖR MEDICINSK FORSKNING, priority 2014, dated 2020)

Biological target: MTH1 (Homo sapiens, UniProt P36639)
Test: MTH1 enzymatic assay (malachite green, coupled to pyrophosphatase)
Format: biochemical
Conditions: dGTP 100 μM, MTH1 6 nM; 96- or 384-well format; read-out: IC50

| Compound | IC50 [nM] |
| --- | --- |
| Cc1cccc(-c2cc(NCc3ccc(S(C)(=O)=O)cc3)nc(N)n2)c1C [Example 279, 6-(2,3-dimethylphenyl)-4-N-[(4-methanesulfonylphenyl)methyl]pyrimidine-2,4-diamine] | < 200 |
| Cc1cccc(-c2cc(NCc3ccc(N4CCN(C)CC4)cc3)nc(N)n2)c1C [Example 280, 6-(2,3-dimethylphenyl)-4-N-{[4-(4-methylpiperazin-1-yl)phenyl]methyl}pyrimidine-2,4-diamine] | < 200 |
| Cc1cccc(-c2cc(NCC3CCN(C(=O)OC(C)(C)C)CC3)nc(N)n2)c1C [Example 283, tert-butyl 4-({[2-amino-6-(2,3-dimethylphenyl)pyrimidin-4-yl]amino}methyl)-piperidine-1-carboxylate] | < 200 |
| CC(=O)NCCCCNc1cc(-c2cccc(Cl)c2Cl)nc(N)n1 [Example 303, N-(4-{[2-Amino-6-(2,3-dichlorophenyl)pyrimidin-4-yl]amino}butyl)acetamide] | < 200 |
| Nc1nc(NCc2ccc(-c3csnn3)cc2)cc(-c2cccc(Cl)c2Cl)n1 [Example 305, 6-(2,3-Dichlorophenyl)-4-N-{[4-(1,2,3-thiadiazol-4-yl)phenyl]methyl}pyrimidine-2,4-diamine] | < 200 |
| C=CC(=O)Nc1cccc(-c2cc(NC)nc(N)n2)c1 [Example 309, N-{3-[2-Amino-6-(methylamino)pyrimidin-4-yl]phenyl}prop-2-enamide] | < 200 |
| CNc1cc(-c2cccc(NC(=O)/C=C/c3ccccc3)c2)nc(N)n1 [Example 310, (2E)-N-{3-[2-Amino-6-(methylamino)pyrimidin-4-yl]phenyl}-3-phenylprop-2-enamide] | < 200 |
| C=CC(=O)Nc1cccc(-c2cc(NC)nc(N)n2)c1C [Example 311, N-{3-[2-Amino-6-(methylamino)pyrimidin-4-yl]-2-methylphenyl}prop-2-enamide] | < 200 |
| C#CC(=O)Nc1cccc(-c2cc(NC)nc(N)n2)c1 [Example 314, N-{3-[2-Amino-6-(methylamino)pyrimidin-4-yl]phenyl}prop-2-ynamide] | < 200 |
| CNc1cc(-c2cccc(NC(=O)c3cc(Cl)ccc3O)c2)nc(N)n1 [Example 321, N-{3-[2-Amino-6-(methylamino)pyrimidin-4-yl]phenyl}-5-chloro-2-hydroxybenzamide] | < 200 |
| CNc1cc(-c2cccc(NC(=O)CCC(=O)N3CCCC3)c2)nc(N)n1 [Example 325, N-{3-[2-Amino-6-(methylamino)pyrimidin-4-yl]phenyl}-4-oxo-4-(pyrrolidin-1-yl)butanamide] | < 200 |
| CNc1cc(-c2cccc(CN)c2)nc(N)n1 [Example 328, 6-[3-(Aminomethyl)phenyl]-4-N-methylpyrimidine-2,4-diamine] | < 200 |
| Cc1nc(CCNc2cc(-c3cccc(C)c3C)nc(N)n2)n[nH]1 [Example 332, 6-(2,3-Dimethylphenyl)-4-N-[2-(5-methyl-1H-1,2,4-triazol-3-yl)ethyl]pyrimidine-2,4-diamine] | < 200 |
| Cc1cccc(-c2cc(NCCn3ccccc3=O)nc(N)n2)c1C [Example 337, 1-(2-{[2-Amino-6-(2,3-dimethylphenyl)pyrimidin-4-yl]amino}ethyl)-1,2-dihydropyridin-2-one] | < 200 |
| Cc1cccc(-c2cc(NCc3ccc[nH]c3=O)nc(N)n2)c1C [Example 338, 3-({[2-Amino-6-(2,3-dimethylphenyl)pyrimidin-4-yl]amino}methyl)-1,2-dihydropyridin-2-one] | < 200 |
| Cc1cccc(-c2cc(NCCc3cccc(Cl)c3)nc(N)n2)c1C [Example 341, 4-N-[2-(3-Chlorophenyl)ethyl]-6-(2,3-dimethylphenyl)pyrimidine-2,4-diamine] | < 200 |
| Cc1cccc(-c2cc(NCCCn3ccnc3)nc(N)n2)c1C [Example 342, 6-(2,3-Dimethylphenyl)-4-N-[3-(1H-imidazol-1-yl)propyl]pyrimidine-2,4-diamine] | < 200 |
| Cc1cccc(-c2cc(NCCc3ccc(F)cc3)nc(N)n2)c1C [Example 344, 6-(2,3-Dimethylphenyl)-4-N-[2-(4-fluorophenyl)ethyl]pyrimidine-2,4-diamine] | < 200 |
| Cc1cccc(-c2cc(NCCc3scnc3C)nc(N)n2)c1C [Example 352, 6-(2,3-Dimethylphenyl)-4-N-[2-(4-methyl-1,3-thiazol-5-yl)ethyl]pyrimidine-2,4-diamine] | < 200 |
| Cc1cccc(-c2cc(NCC3CCCN(c4ccccn4)C3)nc(N)n2)c1C (stereo not drawn) [Example 355, 6-(2,3-Dimethylphenyl)-4-N-{[1-(pyridin-2-yl)piperidin-3-yl]methyl}pyrimidine-2,4-diamine] | < 200 |
| Cc1cccc(-c2cc(NCc3cnn(-c4ccccc4)n3)nc(N)n2)c1C [Example 356, 6-(2,3-Dimethylphenyl)-4-N-[(2-phenyl-2H-1,2,3-triazol-4-yl)methyl]pyrimidine-2,4-diamine] | < 200 |
| Cc1cccc(-c2cc(NCCCNS(=O)(=O)c3ccc(Cl)cc3)nc(N)n2)c1C [Example 357, N-(3-{[2-Amino-6-(2,3-dimethylphenyl)pyrimidin-4-yl]amino}propyl)-4-chlorobenzene-1-sulfonamide] | < 200 |
| Cc1cccc(-c2cc(NCCCNC(=O)Nc3ccc(F)c(F)c3)nc(N)n2)c1C [Example 362, 3-(3-{[2-Amino-6-(2,3-dimethylphenyl)pyrimidin-4-yl]amino}propyl)-1-(3,4-difluorophenyl)urea] | < 200 |
| Cc1cc2cc(CNc3cc(-c4cccc(C)c4C)nc(N)n3)ccc2[nH]1 [Example 364, 6-(2,3-Dimethylphenyl)-4-N-[(2-methyl-1H-indol-5-yl)methyl]pyrimidine-2,4-diamine] | < 200 |
| Cc1cccc(-c2cc(NCCCCNC(=O)OC(C)(C)C)nc(N)n2)c1C [Example 370, tert-Butyl N-(4-{[2-amino-6-(2,3-dimethylphenyl)pyrimidin-4-yl]amino}butyl)-carbamate] | < 200 |
| Cc1cccc(-c2cc(NCCCCCNC(=O)OC(C)(C)C)nc(N)n2)c1C [Example 371, tert-Butyl N-(5-{[2-amino-6-(2,3-dimethylphenyl)pyrimidin-4-yl]amino}pentyl)-carbamate] | < 200 |
| Cc1cccc(-c2cc(NCCCNS(=O)(=O)c3ccc(S(C)(=O)=O)cc3)nc(N)n2)c1C [Example 375, N-(3-{[2-Amino-6-(2,3-dimethylphenyl)pyrimidin-4-yl]amino}propyl)-4-methanesulfonylbenzene-1-sulfonamide] | < 200 |
| CC(=O)Nc1ccc(S(=O)(=O)NCCCNc2cc(-c3cccc(C)c3C)nc(N)n2)cc1 [Example 382, N-{4-[(3-{[2-Amino-6-(2,3-dimethylphenyl)pyrimidin-4-yl]amino}propyl)sulfamoyl]-phenyl}acetamide] | < 200 |
| COc1ccc(S(=O)(=O)NCCNc2cc(-c3cccc(C)c3C)nc(N)n2)cc1 [Example 385, N-(2-{[2-Amino-6-(2,3-dimethylphenyl)pyrimidin-4-yl]amino}ethyl)-4-methoxybenzene-1-sulfonamide] | < 200 |
| Cc1cccc(-c2cc(NCCCNS(=O)(=O)c3cc(Cl)c(Cl)s3)nc(N)n2)c1C [Example 388, N-(3-{[2-Amino-6-(2,3-dimethylphenyl)pyrimidin-4-yl]amino}propyl)-4,5-dichlorothiophene-2-sulfonamide] | < 200 |
